From patent publication US10799507B2, “5-(7H-pyrrolo[2,3-d]pyrimidin-4-yl)-5-azaspiro[2.5]octane-8-carboxylic acid derivatives as novel JAK kinase inhibitors” (LEO Pharma A/S, priority 2017, dated 2020) come the findings set out here.

pEC50: −log10 of the molar value.

Format in all cases: biochemical
For one test, the target named is JAK1 (Homo sapiens (Human), UniProt P23458). The experiment in a line: JAK kinase assay (HTRF), JAK1. Particulars: catalytic domain, ATP at Km (7 μM). The method, then:
(§1) Human baculovirus-expressed JAK1, 2, 3 and TYK2 were purchased from Carna Biosciences, Inc. All four purified enzymes contain only the catalytic domain. JAK1 (aa 850-1154) and TYK2 (aa 871-1187) are expressed with an N-terminally fused GST-tag, and JAK2 and JAK3 with an N-terminally fused His-tag.
(§2) Inhibition of phosphorylation of a synthetic peptide was measured in an HTRF-based assay using the TK substrate-Biotin from the Cisbio HTRFKinEASE TK kit. First, 2 μl of TK solution (TK substrate-biotin in kinase buffer [1× enzymatic buffer from HTRFKinEASE TK kit, 1 mM DTT]) is added to a plate containing 1 μl prediluted compound (final assay concentration DMSO: 0.75%). Then, 5 μl kinase-ATP mix (prepared in kinase buffer) is added to the wells and the plates are incubated at RT for 20-30 min. For all four kinases a concentration of ATP that corresponded to the Km for ATP was used. The final concentrations of buffers, substrate, kinase and ATP were: JAK1: 50 mM Hepes buffer pH 7.0, 0.01% BSA, 10 mM MgCl2, 1 mM DTT, 7 μM ATP, 50 nM SEB, 1 μM TK Substrate-Biotin and 5 ng JAK1; JAK2: 50 mM Hepes buffer pH 7.0, 0.01% BSA, 5 mM MgCl2, 1 mM DTT, 4 μM ATP, 1 μM TK Substrate-Biotin and 0.1 ng JAK2; JAK3: 50 mM Hepes buffer pH 7.0, 0.01% BSA, 5 mM MgCl2, 1 mM DTT, 2 μM ATP, 1 μM TK Substrate-Biotin and 0.3 ng JAK3; TYK2: 50 mM Hepes buffer pH 7.0, 0.01% BSA, 5 mM MgCl2, 1 mM DTT, 13 μM ATP, 50 nM SEB, 1 μM TK Substrate-Biotin and 0.8 ng TYK2. Thereafter, the kinase reaction is stopped by adding 4 μl detection mix (final concentrations: 50 mM Hepes buffer pH 7.0, 0.01% BSA, 0.8 M KF, 20 mM EDTA, 42 nM Streptavidin-XL665 and 1:400 STK Ab Cryptate) and the plates are incubated overnight in the dark. The HTRF signal is read using an Envision plate reader.

Another test has as its target JAK2 (Homo sapiens (Human), UniProt O60674). The experiment in a line: JAK kinase assay (HTRF), JAK2. Particulars: catalytic domain, ATP at Km (4 μM). The method, then: as §1, §2
The target of another test is JAK3 (Homo sapiens (Human), UniProt P52333). The experiment in a line: JAK kinase assay (HTRF), JAK3. The note with it: catalytic domain, ATP at Km (2 μM). The method, then:
as §1, §2
(§3) In Table 1 selected JAK kinase inhibitory activities are listed along with analytical tR and observed M+H^+ data (UPLC-MS method 7).

The next test addresses TYK2 (Homo sapiens (Human), UniProt P29597). As to the kind of experiment: JAK kinase assay (HTRF), TYK2. Particulars: catalytic domain, ATP at Km (13 μM). The method, then:
as §1, §2, §3

Sequence of TYK2 (P29597 871-1187): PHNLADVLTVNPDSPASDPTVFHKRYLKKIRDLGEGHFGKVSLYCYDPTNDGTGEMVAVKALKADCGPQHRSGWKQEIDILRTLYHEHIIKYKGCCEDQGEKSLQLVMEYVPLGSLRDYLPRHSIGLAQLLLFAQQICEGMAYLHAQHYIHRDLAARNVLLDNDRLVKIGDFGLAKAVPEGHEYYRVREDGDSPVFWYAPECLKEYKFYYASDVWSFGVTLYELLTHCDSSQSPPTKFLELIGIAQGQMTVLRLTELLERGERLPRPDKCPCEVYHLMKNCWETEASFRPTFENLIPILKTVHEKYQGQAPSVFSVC
Sequence of JAK2 (O60674 849-1124): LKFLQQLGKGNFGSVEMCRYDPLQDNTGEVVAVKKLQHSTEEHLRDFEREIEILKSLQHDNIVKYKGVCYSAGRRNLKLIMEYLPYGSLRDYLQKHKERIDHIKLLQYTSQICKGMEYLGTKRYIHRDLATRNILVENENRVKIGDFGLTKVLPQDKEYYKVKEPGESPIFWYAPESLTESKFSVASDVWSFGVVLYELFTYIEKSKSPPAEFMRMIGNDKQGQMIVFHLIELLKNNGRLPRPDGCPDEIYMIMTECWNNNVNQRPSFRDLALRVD
Sequence of JAK3 (P52333 822-1111): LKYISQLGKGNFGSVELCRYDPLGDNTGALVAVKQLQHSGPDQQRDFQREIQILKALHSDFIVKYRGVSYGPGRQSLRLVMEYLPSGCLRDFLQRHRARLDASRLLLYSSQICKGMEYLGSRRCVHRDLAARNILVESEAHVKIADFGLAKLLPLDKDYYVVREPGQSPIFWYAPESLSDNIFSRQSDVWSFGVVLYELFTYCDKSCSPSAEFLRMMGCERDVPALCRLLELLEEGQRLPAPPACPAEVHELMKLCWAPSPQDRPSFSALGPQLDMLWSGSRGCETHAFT
Sequence of JAK1 (P23458 850-1154): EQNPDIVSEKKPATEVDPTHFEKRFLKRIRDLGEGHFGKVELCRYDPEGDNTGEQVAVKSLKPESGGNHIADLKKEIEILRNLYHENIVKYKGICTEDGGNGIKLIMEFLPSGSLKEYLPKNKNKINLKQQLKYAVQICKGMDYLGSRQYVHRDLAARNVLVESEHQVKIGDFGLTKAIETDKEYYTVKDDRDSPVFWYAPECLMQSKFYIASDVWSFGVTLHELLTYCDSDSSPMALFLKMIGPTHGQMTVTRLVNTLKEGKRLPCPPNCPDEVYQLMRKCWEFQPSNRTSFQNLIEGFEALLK

On to `C[C@H](NC(=O)[C@H]1CCN(c2ncnc3[nH]ccc23)CC12CC2)[C@H](O)c1ccc(F)cn1` [Example 107, (8S)-N-[(1S,2S)-2-(5-fluoro-2-pyridyl)-2-hydroxy-1-methyl-ethyl]-5-(7H-pyrrolo[2,3-d]pyrimidin-4-yl)-5-azaspiro[2.5]octane-8-carboxamide], for which the negative logarithm of the EC50 (pEC50) was 7.99 at JAK1, 7.84 on JAK2, 7.24 at JAK3 and 6.90 on TYK2.

As to `O=C(NCc1cccnc1)C1CCN(c2ncnc3[nH]ccc23)CC12CC2` (stereo not drawn) [Example 128, N-(3-pyridylmethyl)-5-(7H-pyrrolo[2,3-d]pyrimidin-4-yl)-5-azaspiro[2.5]octane-8-carboxamide], the pEC50 is 7.69 on JAK1, 7.42 on JAK2, 7.23 at JAK3 and 5.85 at TYK2.

Take `O=C(NCc1ccncc1)C1CCN(c2ncnc3[nH]ccc23)CC12CC2` (stereo not drawn) [Example 85, N-(4-pyridylmethyl)-5-(7H-pyrrolo[2,3-d]pyrimidin-4-yl)-5-azaspiro[2.5]octane-8-carboxamide]: the negative logarithm of the EC50 (pEC50) is 8.15 on JAK1, 7.54 at JAK2, 7.37 on JAK3 and 6.10 at TYK2.

As for `N#Cc1cccc([C@H](CO)NC(=O)[C@H]2CCN(c3ncnc4[nH]ccc34)CC23CC3)c1` [Example 67, (8S)-N-[(1R)-1-(3-cyanophenyl)-2-hydroxy-ethyl]-5-(7H-pyrrolo[2,3-d]pyrimidin-4-yl)-5-azaspiro[2.5]octane-8-carboxamide], the pEC50 is 8.29 on JAK1, 8.28 on JAK2, 7.86 on JAK3 and 7.35 on TYK2.

Regarding `O=C(N[C@H](CO)C1CCC1)[C@H]1CCN(c2ncnc3[nH]ccc23)CC12CC2` [Example 147, (8S)-N-[(1S)-1-cyclobutyl-2-hydroxy-ethyl]-5-(7H-pyrrolo[2,3-d]pyrimidin-4-yl)-5-azaspiro[2.5]octane-8-carboxamide], the pEC50 on JAK1 is 7.17; at JAK2, 6.92; on JAK3, 6.79; at TYK2, 6.04.

`O=C(N[C@@H](CO)c1ccc(F)cc1CO)[C@H]1CCN(c2ncnc3[nH]ccc23)CC12CC2` [Example 100, (8S)-N-[(1R)-1-[4-fluoro-2-(hydroxymethyl)phenyl]-2-hydroxy-ethyl]-5-(7H-pyrrolo[2,3-d]pyrimidin-4-yl)-5-azaspiro[2.5]octane-8-carboxamide]: the negative-log EC50 (pEC50) is 8.04 on JAK1, 7.43 on JAK2, 7.14 on JAK3 and 6.61 on TYK2.

With `C[C@@H](NC(=O)[C@H]1CCN(c2ncnc3[nH]ccc23)CC12CC2)c1ccc(C#N)c(F)c1` [Example 84, (8S)-N-[(1R)-1-(4-cyano-3-fluoro-phenyl)ethyl]-5-(7H-pyrrolo[2,3-d]pyrimidin-4-yl)-5-azaspiro[2.5]octane-8-carboxamide], the negative-log EC50 (pEC50) was 8.15 on JAK1, 7.62 on JAK2, 7.26 on JAK3 and 6.60 on TYK2.

`O=C(N[C@@H](CO)c1ccccn1)[C@H]1CCN(c2ncnc3[nH]ccc23)CC12CC2` [Example 122, (8S)-N-[(1R)-2-hydroxy-1-(2-pyridyl)ethyl]-5-(7H-pyrrolo[2,3-d]pyrimidin-4-yl)-5-azaspiro[2.5]octane-8-carboxamide]: the negative logarithm of the EC50 (pEC50) is 7.79 at JAK1, 7.43 at JAK2, 6.82 at JAK3 and 6.69 at TYK2.

For the compound `O=C(NCc1cccc(F)c1)C1CCN(c2ncnc3[nH]ccc23)CC12CC2` (stereo not drawn) [Example 81, N-[(3-fluorophenyl)methyl]-5-(7H-pyrrolo[2,3-d]pyrimidin-4-yl)-5-azaspiro[2.5]octane-8-carboxamide], the pEC50 is 8.17 on JAK1, 7.85 at JAK2, 7.42 on JAK3 and 6.93 on TYK2.
